Data: patent publication US20230202990A1, “CYCLOHEXYL SUBSTITUTED TRIAZOLES” (Hoffmann-La Roche Inc., priority 2020, published 2023)

Target: T1, human V1a receptor (Homo sapiens, UniProt P37288)
T1 construct: expressed in transfected cells; host or cells: HEK293 cells, transiently transfected; cell membranes
Experiment: human V1a receptor binding studies (3H-Vasopressin SPA, HEK293 cell membranes)
Conditions: competition with 3H-Vasopressin on membranes of HEK293 cells transiently transfected with human V1a receptor; Ki by Cheng-Prussoff equation; read-out: pKi (hV1a) (converted)
Method: The human V1a receptor was cloned by RT-PCR from total human liver RNA. The coding sequence was subcloned in an expression vector after sequencing to confirm the identity of the amplified sequence. […] Cell membranes were prepared from HEK293 cells transiently transfected with the expression vector and grown in 20 liter fermenters with the following protocol.
50 g of cells are re-suspended in 30 ml freshly prepared ice cold Lysis buffer (50 mM HEPES, 1 mM EDTA, 10 mM MgCl2 adjusted to pH= 7.4 + complete cocktail of protease inhibitor (Roche Diagnostics)). Homogenized with Polytron for Imin and sonicated on ice for 2x 2 minutes at 80% intensity (Vibracell sonicator). The preparation is centrifuged 20 min at 500 g at 4° C., the pellet is discarded and the supernatant centrifuged 1 hour at 43 ′000g at 4° C. (19 ′000rpm). The pellet is re-suspended in 12.5 ml Lysis buffer+12.5 ml Sucrose 20% and homogenized using a Polytron for 1-2 min. The protein concentration is determined by the Bradford method and aliquots are stored at -80° C. until use. For binding studies 60 mg Yttrium silicate SPA beads (Amersham) are mixed with an aliquot of membrane in binding buffer (50 mM Tris, 120 mM NaCl, 5 mM KCl, 2 mM CaCl2, 10 mM MgCl2) for 15 minutes with mixing. 50 µl of bead/membrane mixture is then added to each well of a 96 well plate, followed by 50 µl of 4 nM 3H-Vasopressin (American Radiolabeled Chemicals). For total binding measurement 100 µl of binding buffer are added to the respective wells, for non-specific binding 100 µl of 8.4 mM cold vasopressin and for compound testing 100 µl of a serial dilution of each compound in 2% DMSO. The plate is incubated 1 h at room temperature, centrifuged 1 min at 1000 g and counted on a Packard Top-Count. Non-specific binding counts are subtracted from each well and data is normalized to the maximum specific binding set at 100%. To calculate an IC50 the curve is fitted using a non-linear regression model (XLfit) and the Ki is calculated using the Cheng-Prussoff equation.

T1 sequence (P37288 whole entry): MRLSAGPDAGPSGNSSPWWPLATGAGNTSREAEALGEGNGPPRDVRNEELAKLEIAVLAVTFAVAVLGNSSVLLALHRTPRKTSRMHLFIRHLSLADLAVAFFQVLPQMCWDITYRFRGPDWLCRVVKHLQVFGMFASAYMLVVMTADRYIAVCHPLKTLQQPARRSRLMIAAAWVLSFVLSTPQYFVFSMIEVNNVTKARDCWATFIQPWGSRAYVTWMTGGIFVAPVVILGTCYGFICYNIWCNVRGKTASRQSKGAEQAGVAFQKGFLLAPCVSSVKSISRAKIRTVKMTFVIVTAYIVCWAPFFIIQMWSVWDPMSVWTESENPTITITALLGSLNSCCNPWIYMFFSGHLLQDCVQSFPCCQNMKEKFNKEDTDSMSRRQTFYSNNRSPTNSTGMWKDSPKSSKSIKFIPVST

Ki | SMILES
5.01 nM | Cc1cnc(O[C@H]2CC[C@H](c3nnc(C)n3-c3ccc(Cl)cc3)CC2)cn1 [Example 70, trans[4-[4-(4-Chlorophenyl)-5-methyl-1,2,4-triazol-3-yl]cyclohexyl]oxy-5-methylpyrazine]
7.08 nM | Cc1nnc([C@H]2CC[C@H](Oc3ccccn3)CC2)n1-c1ccc(F)c(F)c1 [Example 21, trans((4-(4-(3,4-Difluorophenyl)-5-methyl-4H-1,2,4-triazol-3-yl)cyclohexyl)oxy)pyridine]
2.24 nM | Clc1ccc(-n2cnnc2[C@H]2CC[C@H](Oc3ccccn3)CC2)cc1 [Example 52, trans((4-(4-(4-Chlorophenyl)-4H-1,2,4-triazol-3-yl)cyclohexyl)oxy)pyridine]
18.6 nM | Cc1nnc([C@H]2CC[C@H](Oc3ccccn3)CC2)n1-c1ccc(C(F)F)cc1 [Example 7, trans((4-(4-(4-(Difluoromethyl)phenyl)-5-methyl-4H-1,2,4-triazol-3-yl)cyclohexyl)oxy)pyridine]
0.324 nM | Cc1ccc(O[C@H]2CC[C@H](c3nnc(C)n3-c3ccc(Cl)cc3)CC2)cn1 [Example 64]
17.8 nM | Cc1ccc(-n2c(C)nnc2[C@H]2CC[C@H](Oc3cnc(C)cn3)CC2)cc1 [Example 71, transMethyl-5-[4-[5-methyl-4-(4-methylphenyl)-1,2,4-triazol-3-yl]cyclohexyl]oxypyrazine]
0.631 nM | COCc1nnc([C@H]2CC[C@H](Oc3ccccn3)CC2)n1-c1ccc(Cl)cc1 [Example 35, trans(4-(4-(4-Chlorophenyl)-5-(methoxymethyl)-4H-1,2,4-triazol-3-yl)cyclohexyloxy)pyridine]
91.2 nM | C[S@+]([O-])Cc1nnc([C@H]2CC[C@H](Oc3ccccn3)CC2)n1-c1ccc(Cl)cc1 (stereo in doubt) [Example 38, trans-(-)-2-((4-(4-(4-Chlorophenyl)-5-((methylsulfinyl)methyl)-4H-1,2,4-triazol-3-yl)cyclohexyl)oxy)pyridine]
3.39 nM | Cc1ccc(-n2c(C)nnc2[C@H]2CC[C@H](Oc3ccc(C)nc3)CC2)cc1 [Example 65, transMethyl-5-[4-[5-methyl-4-(4-methylphenyl)-1,2,4-triazol-3-yl]cyclohexyl]oxypyridine]
2.14 nM | CN(C)Cc1nnc([C@H]2CC[C@H](Oc3ccccn3)CC2)n1-c1ccc(Cl)cc1 [Example 43, trans(4-(4-Chlorophenyl)-5-(4-(pyridin-2-yloxy)cyclohexyl)-4H-1,2,4-triazol-3-yl)-N,N-dimethylmethanamine]
0.575 nM | CSCCc1nnc([C@H]2CC[C@H](Oc3ccccn3)CC2)n1-c1ccc(Cl)cc1 [Example 46, trans((4-(4-(4-Chlorophenyl)-5-(2-(methylthio)ethyl)-4H-1,2,4-triazol-3-yl)cyclohexyl)oxy)pyridine]
1.58 nM | CSc1cc(Cl)ccc1-n1c(C)nnc1[C@H]1CC[C@H](Oc2ccccn2)CC1 [Example 14, trans[4-[4-(4-Chloromethylsulfanylphenyl)-5-methyl-1,2,4-triazol-3-yl]cyclohexyl]oxypyridine]
0.661 nM | COCc1nnc([C@H]2CC[C@H](Oc3ccc(C)nc3)CC2)n1-c1ccc(Cl)cc1 [Example 67, trans[4-[4-(4-Chlorophenyl)(methoxymethyl)-1,2,4-triazol-3-yl]cyclohexyl]oxy-2-methylpyridine]
2.29 nM | Cc1nnc([C@H]2CC[C@H](Oc3ccc(C(F)F)cn3)CC2)n1-c1ccc(Cl)cc1 [Example 60, trans((4-(4-(4-Chlorophenyl)-5-methyl-4H-1,2,4-triazol-3-yl)cyclohexyl)oxy)-5-(difluoromethyl)pyridine]
2.04 nM | Cc1nnc([C@H]2CC[C@H](Oc3ccccn3)CC2)n1-c1ccc(F)cc1 [Example 4, trans((4-(4-(4-Fluorophenyl)-5-methyl-4H-1,2,4-triazol-3-yl)cyclohexyl)oxy)pyridine]
20 nM | CS(=O)(=O)c1nnc([C@H]2CC[C@H](Oc3ccccn3)CC2)n1-c1ccc(Cl)cc1 [Example 48, trans((4-(4-(4-Chlorophenyl)-5-(methylsulfonyl)-4H-1,2,4-triazol-3-yl)cyclohexyl)oxy)pyridine]
0.891 nM | Cc1cc(Cl)ccc1-n1cnnc1[C@H]1CC[C@H](Oc2ccccn2)CC1 [Example 53]
5.25 nM | Cc1nnc([C@H]2CC[C@H](Oc3ccccn3)CC2)n1-c1ccccc1 [Example 5, trans((4-(5-Methyl-4-phenyl-4H-1,2,4-triazol-3-yl)cyclohexyl)oxy)pyridine]

Ki | SMILES
61.7 nM | Cc1nnc([C@H]2CC[C@H](Oc3ccccn3)CC2)n1-c1ncc(Cl)cc1F [Example 24, transChloro-3-fluoro-2-(3-methyl(4-(pyridin-2-yloxy)cyclohexyl)-4H-1,2,4-triazol-4-yl)pyridine]
2.45 nM | COCc1nnc([C@H]2CC[C@H](Oc3cnccn3)CC2)n1-c1ccc(Cl)cc1 [Example 69, trans[4-[4-(4-Chlorophenyl)-5-(methoxymethyl)-1,2,4-triazol-3-yl]cyclohexyl]oxypyrazine]
33.1 nM | CN(C)CCc1nnc([C@H]2CC[C@H](Oc3ccccn3)CC2)n1-c1ccc(Cl)cc1 [Example 47]
2.19 nM | Cc1ccc(-n2cnnc2[C@H]2CC[C@H](Oc3ccccn3)CC2)c(C)c1 [Example 54, trans((4-(4-(2,4-Dimethylphenyl)-4H-1,2,4-triazol-3-yl)cyclohexyl)oxy)pyridine]
2.95 nM | COCc1nnc([C@H]2CC[C@H](Oc3cnc(C)cn3)CC2)n1-c1ccc(Cl)cc1 [Example 72, trans[4-[4-(4-Chlorophenyl)-5-(methoxymethyl)-1,2,4-triazol-3-yl]cyclohexyl]oxy-5-methylpyrazine]
1.82 nM | Cc1ccc(-n2c(C)nnc2[C@H]2CC[C@H](Oc3ccccn3)CC2)cc1F [Example 20, trans((4-(4-(3-Fluoro-4-methylphenyl)-5-methyl-4H-1,2,4-triazol-3-yl)cyclohexyl)oxy)pyridine]
0.646 nM | COc1nnc([C@H]2CC[C@H](Oc3ccccn3)CC2)n1-c1ccc(Cl)cc1 [Example 49, trans((4-(4-(4-Chlorophenyl)-5-methoxy-4H-1,2,4-triazol-3-yl)cyclohexyl)oxy)pyridine]
2.14 nM | FC(F)(F)c1nnc([C@H]2CC[C@H](Oc3ccccn3)CC2)n1-c1ccc(Cl)cc1 [Example 33, trans((4-(4-(4-Chlorophenyl)-5-(trifluoromethyl)-4H-1,2,4-triazol-3-yl)cyclohexyl)oxy)pyridine]
0.195 nM | Cc1nnc([C@H]2CC[C@H](Oc3ccccn3)CC2)n1-c1ccc(Br)cc1 [Example 9, trans((4-(4-(4-Bromophenyl)-5-methyl-4H-1,2,4-triazol-3-yl)cyclohexyl)oxy)pyridine]
0.447 nM | Cc1ccc(-n2c(C)nnc2[C@H]2CC[C@H](Oc3ccc(C)cn3)CC2)cc1 [Example 57, transMethyl-2-[4-[5-methyl-4-(4-methylphenyl)-1,2,4-triazol-3-yl]cyclohexyl] oxypyridine]
64.6 nM | C[S+]([O-])Cc1nnc([C@H]2CC[C@H](Oc3ccccn3)CC2)n1-c1ccc(Cl)cc1 (mixture of isomers) [Example 37, trans-(rac)-2-((4-(4-(4-Chlorophenyl)-5-((methylsulfinyl)methyl)-4H-1,2,4-triazol-3-yl)cyclohexyl)oxy)pyridine]
38.9 nM | Cc1nnc([C@H]2CC[C@H](Oc3ccccn3)CC2)n1-c1ccc(C#N)cc1 [Example 8, trans(3-Methyl-5-((1r,4r)(pyridin-2-yloxy)cyclohexyl)-4H-1,2,4-triazolyl)benzonitrile]
3.47 nM | COCc1nnc([C@H]2CC[C@H](Oc3ccc(C)nc3)CC2)n1-c1ccc(C)cc1 [Example 66, trans[4-[5-(Methoxymethyl)-4-(4-methylphenyl)-1,2,4-triazol-3-yl]cyclohexyl]oxy-2-methylpyridine]
31.6 nM | C[S@@+]([O-])Cc1nnc(C2CCC(Oc3ccccn3)CC2)n1-c1ccc(Cl)cc1 (single isomer, unassigned) [Example 39, trans-(+)-2-((4-(4-(4-Chlorophenyl)-5-((methylsulfinyl)methyl)-4H-1,2,4-triazol-3-yl)cyclohexyl)oxy)pyridine]
0.912 nM | Cc1nnc([C@H]2CC[C@H](Oc3ccccn3)CC2)n1-c1ccc(Cl)cc1 [Example 3, trans(4-(4-(4-Chlorophenyl)-5-methyl-4H-1,2,4-triazol-3-yl)cyclohexyloxy)pyridine]
0.759 nM | Cc1nnc([C@H]2CC[C@H](Oc3ccccn3)CC2)n1-c1ccc(Cl)cc1F [Example 12, trans((4-(4-(4-Chlorofluorophenyl)-5-methyl-4H-1,2,4-triazol-3-yl)cyclohexyl)oxy)pyridine]
32.4 nM | CN(C)CCOc1nnc([C@H]2CC[C@H](Oc3ccccn3)CC2)n1-c1ccc(Cl)cc1 [Example 51]
